Reference: ChEMBL document CHEMBL1201862, “PubChem BioAssay data set” (2004)
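Following 48 hours of exposure in 96-well plates, responses at five concentrations were used to interpolate endpoints linearly. Abbreviation: GI50, concentration required for 50% inhibition of growth.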 Activity calls are given as the source filed them. No stated cut-off is given here; in the data, active = GI50 up to about 1.1 µM and inactive = higher. Square brackets hold non-standard residues; d marks the D form. Peptide text beside a SMILES is read from it. * marks the point of attachment. ξ: configuration not given here. ξF = NC(Cc1ccccc1)C(=O)O; Cbz = O=C(OCc1ccccc1)*; Aib = CC(C)(N)C(=O)O

Tests used:
Assay in all cases: NCI anticancer screen, dose series, 48 h
UACC-257 = test system: UACC-257
786-0 = test system: 786-0
MDA-N = test system: MDA-N
SNB-75 = test system: SNB-75
NCI-H522 = test system: NCI-H522
CAKI-1 = test system: CAKI-1
SK-MEL-5 = test system: SK-MEL-5
K562 = test system: K562
ACHN = test system: ACHN
NCI-H460 = test system: NCI-H460
MDA-MB-231 = test system: MDA-MB-231
BT-549 = test system: BT-549
DU-145 = test system: DU-145
HOP-92 = test system: HOP-92
OVCAR-3 = test system: OVCAR-3
RXF 393 = test system: RXF 393
RPMI-8226 = test system: RPMI-8226
A549 = test system: A549
NCI/ADR-RES = test system: NCI/ADR-RES
MDA-MB-435 = test system: MDA-MB-435

Row | SMILES | GI50 (UACC-257) | GI50 (786-0) | GI50 (MDA-N) | GI50 (SNB-75) | GI50 (NCI-H522) | GI50 (CAKI-1) | GI50 (SK-MEL-5) | GI50 (K562) | GI50 (ACHN) | GI50 (NCI-H460) | GI50 (MDA-MB-231) | GI50 (BT-549) | GI50 (DU-145) | GI50 (HOP-92) | GI50 (OVCAR-3) | GI50 (RXF 393) | GI50 (RPMI-8226) | GI50 (A549) | GI50 (NCI/ADR-RES) | GI50 (MDA-MB-435)
1 | O=C(O)c1ccc(C2SCc3nc4ccccc4n32)cc1 (stereo unspecified) | > 100 µM (inactive) | > 100 µM (inactive) | > 100 µM (inactive) | > 100 µM (inactive) | > 100 µM (inactive) | > 100 µM (inactive) | > 100 µM (inactive) | > 100 µM (inactive) | > 100 µM (inactive) | > 100 µM (inactive) | > 100 µM (inactive) | > 100 µM (inactive) | > 100 µM (inactive) | > 100 µM (inactive) | > 100 µM (inactive) | > 100 µM (inactive) | > 100 µM (inactive) | > 100 µM (inactive) | – | –
2 | COc1cc2c(cc1OC)C1C=NC(C2)c2cc(OC)c(OC)cc21 (stereo unspecified) | > 100 µM (inactive) | > 100 µM (inactive) | > 100 µM (inactive) | > 100 µM (inactive) | 46.3 µM (inactive) | 97.7 µM (inactive) | 40.5 µM (inactive) | 54.2 µM (inactive) | > 100 µM (inactive) | > 100 µM (inactive) | > 100 µM (inactive) | 81.8 µM (inactive) | > 100 µM (inactive) | 4.49 µM (inactive) | > 100 µM (inactive) | – | 60.3 µM (inactive) | 78.7 µM (inactive) | > 100 µM (inactive) | > 100 µM (inactive)
3 | CC1CC(N2CCOCC2)=Nc2ccccc2N1C (stereo unspecified) | > 100 µM (inactive) | > 100 µM (inactive) | > 100 µM (inactive) | 0.0392 µM (active) | 98.9 µM (inactive) | > 100 µM (inactive) | > 100 µM (inactive) | > 100 µM (inactive) | > 100 µM (inactive) | > 100 µM (inactive) | > 100 µM (inactive) | > 100 µM (inactive) | > 100 µM (inactive) | – | > 100 µM (inactive) | > 100 µM (inactive) | > 100 µM (inactive) | > 100 µM (inactive) | > 100 µM (inactive) | > 100 µM (inactive)
4 | CC(C)OC(=O)NNc1cc(Cl)ccc1Cl | 39.7 µM (inactive) | > 100 µM (inactive) | 73.6 µM (inactive) | 58.3 µM (inactive) | 31.5 µM (inactive) | 79.6 µM (inactive) | 39.4 µM (inactive) | 19.2 µM (inactive) | > 100 µM (inactive) | 80.7 µM (inactive) | > 100 µM (inactive) | 64.3 µM (inactive) | > 100 µM (inactive) | 34.8 µM (inactive) | > 100 µM (inactive) | – | 44.5 µM (inactive) | 64 µM (inactive) | > 100 µM (inactive) | > 100 µM (inactive)
5 | COc1ccc2[nH]cc(CN3CCC(CO)(c4ccccc4)CC3)c2c1 | 17.5 µM (inactive) | 15.3 µM (inactive) | 18.7 µM (inactive) | 27 µM (inactive) | 18.9 µM (inactive) | – | 14.1 µM (inactive) | 17.6 µM (inactive) | 20.2 µM (inactive) | 30 µM (inactive) | 26.7 µM (inactive) | 78.9 µM (inactive) | 45.2 µM (inactive) | – | 48.2 µM (inactive) | 71.4 µM (inactive) | 22.6 µM (inactive) | 22.5 µM (inactive) | > 100 µM (inactive) | 20.6 µM (inactive)
6 | O=C1OC(c2ccccc2)=N/C1=C\c1ccc(Br)cc1 | > 100 µM (inactive) | > 100 µM (inactive) | > 100 µM (inactive) | > 100 µM (inactive) | > 100 µM (inactive) | > 100 µM (inactive) | > 100 µM (inactive) | > 100 µM (inactive) | > 100 µM (inactive) | > 100 µM (inactive) | > 100 µM (inactive) | > 100 µM (inactive) | > 100 µM (inactive) | > 100 µM (inactive) | > 100 µM (inactive) | > 100 µM (inactive) | 96.6 µM (inactive) | > 100 µM (inactive) | – | > 100 µM (inactive)
7 | OCCCSc1ccccc1SCCCO | > 100 µM (inactive) | > 100 µM (inactive) | > 100 µM (inactive) | 17.2 µM (inactive) | > 100 µM (inactive) | – | > 100 µM (inactive) | > 100 µM (inactive) | – | > 100 µM (inactive) | > 100 µM (inactive) | > 100 µM (inactive) | > 100 µM (inactive) | < 0.01 µM (active) | > 100 µM (inactive) | – | – | > 100 µM (inactive) | > 100 µM (inactive) | > 100 µM (inactive)
8 | O=C(c1cc(Cl)ccc1Cl)N1CCN(c2ccc(Cl)c(Cl)c2)CC1 | 29.9 µM (inactive) | 19.7 µM (inactive) | 38.1 µM (inactive) | 31.1 µM (inactive) | 20.7 µM (inactive) | 35.8 µM (inactive) | 14.6 µM (inactive) | 18.1 µM (inactive) | 47 µM (inactive) | 17 µM (inactive) | 29.1 µM (inactive) | 25.2 µM (inactive) | 61.2 µM (inactive) | 54.2 µM (inactive) | 31.4 µM (inactive) | 15.4 µM (inactive) | 74.6 µM (inactive) | 26.9 µM (inactive) | – | –
9 | CC(C)(NC(=O)OCc1ccccc1)C(=O)NC(Cc1ccccc1)C(=O)O (stereo unspecified) (Cbz-[Aib]-[ξF]-OH) | > 100 µM (inactive) | > 100 µM (inactive) | > 100 µM (inactive) | > 100 µM (inactive) | > 100 µM (inactive) | > 100 µM (inactive) | > 100 µM (inactive) | > 100 µM (inactive) | – | > 100 µM (inactive) | > 100 µM (inactive) | > 100 µM (inactive) | > 100 µM (inactive) | > 100 µM (inactive) | > 100 µM (inactive) | – | > 100 µM (inactive) | > 100 µM (inactive) | > 100 µM (inactive) | > 100 µM (inactive)
10 | c1ccc(CSSSCc2ccccc2)cc1 [DIBENZYL TRISULFIDE] | 5.57 µM (inactive) | 0.463 µM (active) | 1.25 µM (inactive) | 7.18 µM (inactive) | 0.363 µM (active) | 1.41 µM (inactive) | 1.88 µM (inactive) | 0.127 µM (active) | 1.69 µM (inactive) | 1.7 µM (inactive) | 2.48 µM (inactive) | 3.27 µM (inactive) | 1.12 µM (active) | – | 0.423 µM (active) | 1.72 µM (inactive) | 0.313 µM (active) | 5.09 µM (inactive) | 1.86 µM (inactive) | 0.568 µM (active)
11 | O=C1C(CO)=C[C@@H](O)[C@H]2O[C@@H]12 [EPOXYDON] | – | 39.8 µM (inactive) | > 100 µM (inactive) | 37.4 µM (inactive) | > 100 µM (inactive) | > 100 µM (inactive) | > 100 µM (inactive) | > 100 µM (inactive) | 90.2 µM (inactive) | 53.1 µM (inactive) | > 100 µM (inactive) | 98.9 µM (inactive) | > 100 µM (inactive) | > 100 µM (inactive) | > 100 µM (inactive) | – | 33.3 µM (inactive) | 77.3 µM (inactive) | 75.5 µM (inactive) | 25.2 µM (inactive)
